Tested on: microorganisms

For O=C(O)CCCCC(=O)O [Adipic acid], the “portion of the total mortality observed accounted for by the toxicity” value was “about 60%” and the “toxicity (mortality) on its own” value (pH 4.24) was 45.8%.

Reference: patent US9492377B2, “Effervescent composition in solid form for use in vaginal applications for the treatment of vaginal infections” (PROBIOTICAL S.P.A., priority 2011, dated 2016)
